Experimental data as given in US20110166121A1 (LG LIFE SCIENCES LTD., priority 2008, published 2011).

Tests used:
Human P2Y12 receptor = target: T1, Human P2Y12 receptor (Homo sapiens, UniProt Q9H244); test: Human P2Y12 receptor cell membrane binding assay with [3H] 2-Mes-ADP; settings: 1 nM [3H] 2-Mes-ADP, membranes of HEK cells expressing P2Y12 receptor; read-out: Binding activity (IC50)
T1 construct: expressed in transfected cells; host or cells: HEK cells
In short: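 Competition binding used 1 nM [3H]2-MeS-ADP on P2Y12-expressing HEK cell membranes for 1 h at room temperature, followed by filtration and scintillation counting.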

[1] = tested on: Human platelet aggregation caused by ADP; test: Inhibition of ADP-induced platelet aggregation (Mimic-human PRP); assay type: cell-based; settings: 20 μM ADP, human platelet concentrate diluted with PPP, absorption at 595 nm
In short: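 Ki came from non-linear sigmoidal fits of inhibition, measured as the 3-min rise in absorbance at 595 nm after 20 μM ADP, relative to 0/20 μM ADP controls. Platelets (3–4×10^8/mL in PPP-diluted human PRP) were exposed to 0.01–30 μM compound for 20 min at room temperature beforehand.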

T1 sequence (Q9H244 whole entry): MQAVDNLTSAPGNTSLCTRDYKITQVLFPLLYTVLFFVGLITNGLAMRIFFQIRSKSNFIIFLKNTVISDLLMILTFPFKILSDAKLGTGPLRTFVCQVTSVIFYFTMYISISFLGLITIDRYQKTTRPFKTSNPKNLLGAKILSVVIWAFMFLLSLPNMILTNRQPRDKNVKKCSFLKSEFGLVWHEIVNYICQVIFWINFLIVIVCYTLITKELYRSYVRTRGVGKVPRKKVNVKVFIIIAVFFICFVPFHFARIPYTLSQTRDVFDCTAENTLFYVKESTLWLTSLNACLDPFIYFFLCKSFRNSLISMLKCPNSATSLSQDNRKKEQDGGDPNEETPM

| SMILES | IC50 (Human P2Y12 receptor) [nM] | Ki [1] [nM] |
| --- | --- | --- |
| CCCc1cc2c(N3CCn4c(nnc4C(F)(F)F)C3)nc(C(=O)NCC(=O)O)nc2s1 [Example 4-9, {[6-Propyl-4-(3-trifluoromethyl-5,6-dihydro-8H-[1,2,4]triazolo[4,3-a]pyrazin-7-yl)thieno[2,3-d]pyrimidine-2-carbonyl]amino}acetic acid] | 1100 | 5100 |
| CCCc1cc2c(N3CCn4c(nnc4C(F)(F)F)C3)nc(C(=O)NCC(O)CO)nc2s1 (stereo not shown) [Example 4-10, 6-Propyl-4-(3-trifluoromethyl-5,6-dihydro-8H-[1,2,4]triazolo[4,3-a]pyrazin-7-yl)thieno[2,3-d]pyrimidine-2-carboxylic acid (2,3-dihydroxy-propyl)amide] | 1550 | 200 |
| CCCc1cc2c(N3CCn4c(nnc4C(F)(F)F)C3)nc(C(=O)NCCC#N)nc2s1 [Example 4-11, 6-Propyl-4-(3-trifluoromethyl-5,6-dihydro-8H-[1,2,4]triazolo[4,3-a]pyrazin-7-yl)thieno[2,3-d]pyrimidine-2-carboxylic acid (2-cyanoethyl)amide] | 660 | 600 |
| CCCc1cc2c(N3CCn4c(nnc4C(F)(F)F)C3)nc(C(=O)N3CCC(O)C3)nc2s1 (stereo not shown) [Example 4-12, (3-Hydroxy-pyrrolidin-1-yl)-[6-propyl-4-(3-trifluoromethyl-5,6-dihydro-8H-[1,2,4]triazolo[4,3-a]pyrazin-7-yl)thieno[2,3-d]pyrimidin-2-yl]methanon] | 1100 | 95 |
| CCCc1cc2c(N3CCn4c(nnc4C(F)(F)F)C3)nc(C(=O)N3CCN(C)CC3)nc2s1 [Example 4-13, (4-Methyl-piperazin-1-yl)-[6-propyl-4-(3-trifluoromethyl-5,6-dihydro-8H-[1,2,4]triazolo[4,3-a]pyrazin-7-yl)thieno[2,3-d]pyrimidin-2-yl]methanone] | 4920 | 1800 |
| CCCc1cc2c(N3CCn4c(nnc4C(F)(F)F)C3)nc(C(=O)N3CCCC(C(=O)OCC)C3)nc2s1 (stereo not shown) [Example 4-14, 1-[6-Propyl-4-(3-trifluoromethyl-5,6-dihydro-8H-[1,2,4]triazolo[4,3-a]pyrazin-7-yl)thieno[2,3-d]pyrimidine-2-carbonyl]piperidine-3-carboxylic acid ethyl ester] | 1290 | 460 |
| CCCc1cc2c(N3CCn4c(nnc4C(F)(F)F)C3)nc(C(=O)N3CCCC(C(=O)O)C3)nc2s1 (stereo not shown) [Example 4-15, 1-[6-Propyl-4-(3-trifluoromethyl-5,6-dihydro-8H-[1,2,4]triazolo[4,3-a]pyrazin-7-yl)thieno[2,3-d]pyrimidine-2-carbonyl]piperidine-3-carboxylic acid] | 630 | 690 |
| CCCc1cc2c(N3CCn4c(nnc4C(F)(F)F)C3)nc(C(=O)Nc3ccccc3)nc2s1 [Example 4-16, 6-Propyl-4-(3-trifluoromethyl-5,6-dihydro-8H-[1,2,4]triazolo[4,3-a]pyrazin-7-yl)-thieno[2,3-d]pyrimidine-2-carboxylic acid phenylamide] | 650 | > 4000 |
| CCCc1cc2c(N3CCn4c(nnc4C(F)(F)F)C3)nc(C(=O)NCc3ccccc3)nc2s1 [Example 4-17, 6-Propyl-4-(3-trifluoromethyl-5,6-dihydro-8H-[1,2,4]triazolo[4,3-a]pyrazin-7-yl)thieno[2,3-d]pyrimidine-2-carboxylic acid benzylamide] | 210 | 1600 |
| CCc1cc2c(N3CCn4c(nnc4C(F)(F)F)C3)nc(CO)nc2s1 [Example 4-18, [6-Ethyl-4-(3-trifluoromethyl-5,6-dihydro-8H-[1,2,4]triazolo[4,3-a]pyrazin-7-yl)thieno[2,3-d]pyrimidin-2-yl]methanol] | 1530 | 1600 |
| CCCc1cc2c(N3CCn4c(nnc4C(F)(F)F)C3)nc(CO)nc2s1 [Example 4-19, [6-Propyl-4-(3-trifluoromethyl-5,6-dihydro-8H-[1,2,4]triazolo[4,3-a]pyrazin-7-yl)-thieno[2,3-d]pyrimidin-2-yl]methanol] | 500 | 250 |
